These results are taken from patent US7572793B2, “3-Substituted-4-pyrimidone derivatives” (Mitsubishi Tanabe Pharma Corporation, priority 2001, dated 2009).

What is called IC50 is the point on the concentration scale where inhibition reaches its midpoint.

T1 sequence (A0A3Q1MT31 1-419): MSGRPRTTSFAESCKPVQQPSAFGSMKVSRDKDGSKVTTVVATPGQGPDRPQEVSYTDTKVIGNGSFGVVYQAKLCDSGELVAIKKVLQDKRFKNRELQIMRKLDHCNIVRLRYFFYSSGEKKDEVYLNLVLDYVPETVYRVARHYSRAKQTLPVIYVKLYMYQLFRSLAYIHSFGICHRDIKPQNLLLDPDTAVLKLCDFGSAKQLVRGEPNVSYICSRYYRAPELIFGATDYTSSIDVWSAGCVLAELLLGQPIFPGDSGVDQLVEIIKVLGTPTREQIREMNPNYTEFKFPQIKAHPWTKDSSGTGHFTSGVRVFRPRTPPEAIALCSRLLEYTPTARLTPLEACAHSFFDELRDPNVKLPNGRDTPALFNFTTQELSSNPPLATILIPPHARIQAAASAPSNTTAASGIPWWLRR

This test addresses T1, bovine cerebral TPK1 (Bos taurus, UniProt A0A3Q1MT31).
T1 construct: from tissue; host or cells: bovine brain (cerebrum)
Briefly: Inhibitory activity against P-GS1 phosphorylation by bovine cerebral TPK1. The settings on record: 41.7 μM [γ-32P]ATP, 25° C., 2 hours, pH 6.5. In kind it is biochemical. The procedure:
Inhibitory Activity of the Medicament of the Present Invention Against P-GS1 Phosphorylation by Bovine Cerebral TPK1
A mixture containing 100 mM MES-sodium hydroxide (pH 6.5), 1 mM magnesium acetate, 0.5 mM EGTA, 5 mM β-mercaptoethanol, 0.02% Tween 20, 10% glycerol, 12 μg/ml P-GS1, 41.7 μM [y-^32P] ATP (68 kBq/ml), bovine cerebral TPK1 and a compound shown in Table (a final mixture contained 1.7% DMSO deriving from a solution of a test compound prepared in the presence of 10% DMSO) was used as a reaction system. The phosphorylation was started by adding ATP, and the reaction was conducted at 25° C. for 2 hours, and then stopped by adding 21% perchloric acid on ice cooling. The reaction mixture was centrifuged at 12,000 rpm for 5 minutes and adsorbed on P81 paper (Whatmann), and then the paper was washed four times with 75 mM phosphoric acid, three times with water and once with acetone. The paper was dried, and the residual radioactivity was measured using a liquid scintillation counter. […] PHF formation, and that the medicaments of the present invention are effective for preventive and/or therapeutic treatment of Alzheimer disease and the above-mentioned diseases.
Take `COc1cc(-c2ccc(F)cc2)ccc1C1CN(c2nc(-c3ccncn3)cc(=O)n2C)CCO1` (stereo not drawn) [Compound B279]: the IC50 is 1.2 nM.

Molecule `COc1ccc(-c2ccccn2)cc1C1CN(c2nc(-c3ccncn3)cc(=O)n2C)CCO1` (stereo not drawn) [Compound B280] yielded an IC50 of 0.6 nM.

`COc1cccc(-c2ccc(OC)c(C3CN(c4nc(-c5ccncn5)cc(=O)n4C)CCO3)c2)n1` (stereo not drawn) [Compound B281]: half-maximal inhibition (IC50) required 0.84 nM.

Regarding `COc1ncc(-c2ccc(OC)c(C3CN(c4nc(-c5ccncn5)cc(=O)n4C)CCO3)c2)c(OC)n1` (stereo not drawn) [Compound B283], the IC50 is 1.9 nM.

Turning to `Cn1c(N2CCOC3(CCOc4ccccc43)C2)nc(-c2ccncn2)cc1=O` (stereo not drawn) [Compound B284], the IC50 was 11 nM.

In turn, `Cn1c(N2CCOC3(CCCOc4ccccc43)C2)nc(-c2ccncn2)cc1=O` (stereo not drawn) [Compound B285] returned an IC50 of 26 nM.

`Cn1c(N2CCCC(C(=O)c3ccccc3)C2)nc(-c2ccncn2)cc1=O` (stereo not drawn) [Compound C401] displayed an IC50 of 1.1 nM.

As for `Cn1c(N2CCOC(C(=O)c3ccccc3)C2)nc(-c2ccncn2)cc1=O` (stereo not drawn) [Compound C501], 0.56 nM corresponded to half-maximal inhibition (IC50).

With `Cn1c(N2CCC(C(=O)c3ccc(Cl)cc3)CC2)nc(-c2ccncn2)cc1=O` [Compound D034, 2-[4-(4-Chlorobenzoyl)piperidin-1-yl]-3-methyl-6-pyrimidin-4-yl-3H-pyrimidin-4-one], half-maximal inhibition (IC50) was put at 1.1 nM.
